In one assay the target is T1, Steryl-sulfatase (Homo sapiens, UniProt P08842).
T1 sequence (P08842 whole entry): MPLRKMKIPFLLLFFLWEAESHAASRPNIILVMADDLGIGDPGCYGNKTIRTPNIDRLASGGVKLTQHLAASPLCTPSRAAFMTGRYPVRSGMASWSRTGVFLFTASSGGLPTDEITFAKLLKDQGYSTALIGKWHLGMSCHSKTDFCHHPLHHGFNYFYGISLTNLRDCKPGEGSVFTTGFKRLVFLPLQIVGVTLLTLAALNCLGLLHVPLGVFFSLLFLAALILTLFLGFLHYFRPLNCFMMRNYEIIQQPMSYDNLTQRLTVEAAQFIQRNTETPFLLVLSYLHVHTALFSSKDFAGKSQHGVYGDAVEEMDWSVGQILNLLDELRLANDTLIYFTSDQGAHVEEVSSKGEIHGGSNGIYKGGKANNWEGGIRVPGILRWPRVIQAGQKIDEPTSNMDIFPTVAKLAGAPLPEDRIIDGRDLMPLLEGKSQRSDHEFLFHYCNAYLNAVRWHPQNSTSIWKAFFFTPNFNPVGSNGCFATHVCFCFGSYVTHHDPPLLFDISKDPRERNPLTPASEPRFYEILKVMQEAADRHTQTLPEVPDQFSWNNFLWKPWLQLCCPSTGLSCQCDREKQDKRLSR
Nature of the assay: In vitro inhibition of estrone sulfatase in placental microsomes. Also noted: species or system Placenta.

The species entered for the next assay is Rattus norvegicus. As to the kind of experiment: Effect on uterine weight gain in ovariectomized rat, expressed as uterine weight/total body weight X100 (0.036+/-0.001). The assay is classed as functional.
Assay [1] has as its target T2, Steryl-sulfatase (Rattus norvegicus) (UniProt P15589).
T2 sequence (whole entry): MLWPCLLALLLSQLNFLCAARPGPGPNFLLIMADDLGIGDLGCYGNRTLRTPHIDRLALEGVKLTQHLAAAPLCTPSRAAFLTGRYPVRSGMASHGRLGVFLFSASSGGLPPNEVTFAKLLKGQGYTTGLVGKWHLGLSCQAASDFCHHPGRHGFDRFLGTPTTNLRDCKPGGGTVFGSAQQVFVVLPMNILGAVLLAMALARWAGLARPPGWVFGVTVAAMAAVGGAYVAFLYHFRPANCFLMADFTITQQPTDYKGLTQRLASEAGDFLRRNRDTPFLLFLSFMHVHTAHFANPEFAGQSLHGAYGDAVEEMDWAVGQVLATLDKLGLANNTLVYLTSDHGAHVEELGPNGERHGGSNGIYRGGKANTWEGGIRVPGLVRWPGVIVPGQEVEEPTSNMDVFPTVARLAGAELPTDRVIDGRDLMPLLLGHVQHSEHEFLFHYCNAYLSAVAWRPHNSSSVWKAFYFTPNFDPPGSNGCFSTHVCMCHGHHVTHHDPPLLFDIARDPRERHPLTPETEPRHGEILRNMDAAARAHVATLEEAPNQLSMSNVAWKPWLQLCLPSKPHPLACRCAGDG
As to the kind of experiment: In vivo inhibition of estrone sulfatase in rat liver after oral administration. The assay is classed as organism-based. As to conditions: concentration not given here.

The target in assay [2] is T3, Steryl-sulfatase (Homo sapiens) (UniProt P08842).
T3 sequence (whole entry): T1 sequence (P08842 whole entry)
Nature of the assay: Inhibition of estrone sulfatase in MCF-7 breast cancer cells at 0.1 uM. The assay is classed as cell-based. As to conditions: MCF7.

As to `C[C@]12CC[C@@H]3c4ccc(OS(N)(=O)=O)cc4CC[C@H]3[C@@H]1CCC2=O` [EMATE], on Steryl-sulfatase, it took 93 nM to reach half-maximal inhibition (IC50). The compound further had an Average uterine weight in the assay filed under Rattus norvegicus of 0.11. Moreover, the inhibition – broadly, the drop in the measured response relative to a control, in per cent – in assay [1] was determined as 99%.
As for `C[C@]12CC[C@@H]3c4ccc(OS(N)(=O)=O)cc4CC[C@H]3[C@@H]1CC/C2=N\O`, the inhibition in assay [2] and in assay [1] was 99% throughout. Moreover, on Steryl-sulfatase, the concentration for half-maximal inhibition (IC50) – broadly, the midpoint of a concentration-inhibition curve – turned out to be 80 nM. The Average uterine weight in the assay filed under Rattus norvegicus is on record as 0.15.

These data come from ChEMBL document CHEMBL1132331, “Synthesis and biological activity of the superestrogen (E)-17-oximino-3-O-sulfamoyl-1,3,5(10)-estratriene: x-ray crystal structure of (E)-17-oximino-3-hydroxy-1,3,5(10)-estratriene” (J Med Chem, 1999).
